From patent US20160251342A1, “ALDEHYDE DERIVATIVE OF SUBSTITUTED OXAZOLIDINONES” (WANBURY LTD., priority 2012, published 2016)

Experiments:
[1] = In vitro liver microsomal stability assay, human; type: in vitro ADME; details: human microsomes, rivaroxaban itself incubated
Description: (§1) Liver microsomal stability assays are conducted at 1 mg per mL liver microsome protein with an NADPH in phosphate buffer (100 mM, pH 7.4). Test compounds (compound of formula B of the invention) are prepared as solutions in 20% methanol-water and added to the assay mixture (final assay concentration 1 μM) and incubated at 37° C. Aliquots (100 .μ.L) are taken out at times 0, 15, and 30 minutes, and diluted with ice cold acetonitrile containing IS (200 µL) to stop the reactions. Samples are centrifuged at 10,000 RPM for 5 minutes to precipitate proteins. Supernatants are transferred to micro centrifuge tubes and stored at −20° C. for analysis of LC/MS/MS. The percent parent remaining of the test substance is calculated as Ratio of peak area at each time point to peak area ratio at zero min, multiplied by 100. The compound formula (B) is converted to Rivaroxaban in microsomal assay.

[2] = In vitro liver microsomal stability assay, rat; type: in vitro ADME; details: rat microsomes; for % Parent remaining (rat): rivaroxaban itself incubated
Description: as §1

thrombus formation [3] = test: Arteriovenous shunt model (rat); type: in vivo, rats (strain: Wistar); details: for ED50: Rattus norvegicus, arteriovenous shunt, read-out: ED-50 to inhibit the thrombus formation
Description: Fasting male rats (strain: Wistar) having a weight of 280-320 g were anaesthetized using a isoflurane/oxygen. Thrombus formation was initiated in an arteriovenous shunt in accordance with the method described by Christopher N. Berry et al., Br. J. Pharmacol. (1994), 113, 1209-1214. To this end, the left jugular vein and the right carotid artery were exposed. The two vessels were connected by an extracorporeal shunt using a 10 cm long Poly Vinyl Chloride tube (.P.V.C.) 9 internal diameter i.d. 0.5 mm), in middle of PVC tubing a 5 cm Scalp vein tube (i.d. 1.5 mm) will be attached which contained a 3 cm long roughened surface nylon thread which will be arranged to form a loop to form a thrombogenic surface. The extracorporeal circulation was maintained for 15 minutes. The shunt was then removed and the nylon thread with the thrombus was weighed immediately. The weight of the nylon thread on its own had been determined before the experiment was started. Before the extracorporeal circulation was set up, The test item [compound formula (B) (Wanxaban)/reference item (Rivaroxaban)/vehicle will be administered to the animals as per routes preferred. Animals were grouped by body weight stratification and randomization (Represented by G1-[…]). The grouping was done one day prior to the experiment initiation.

thrombus formation [4] = test: Venous thrombosis model (rat); type: in vivo, rats (strain: Wistar); details: for Mean thrombus weight (mg) (±SEM): per oral 120 minutes before induction, vehicle 4.36 ± 0.58
Description: Male fasting rats (strain: Wistar) having a weight 280-320 g were anaesthetized using isoflurane/oxygen. The left jugular vein was exposed (about 2 cm). The formation of a venous thrombus was induced by mechanical injury to the blood vessel in accordance with the method described by K. Meng, et al., Naunyn-Schmiedeberg's Arch. Pharmacol. (1977), 301, 115-119. To this end, the jugular vein was clamped from the blood flow, cooled to -12° C. in a metal trough for 2 minutes and, to standardize the size of the thrombi, simultaneously compressed using a weight of 200 g. The blood flow was re-opened and the wound was closed. After 4 hours, the wound was re-opened to remove the thrombi from the injured sections of the vessel. The moist weight of the thrombi was determined immediately. […] Animals were grouped by body weight stratification and randomization (Represented by G12-[…]). The grouping was done one day prior to the experiment initiation.

[5] = In vitro stability in mouse plasma (LC-MS); type: in vitro ADME; details: for % Parent remaining (Mouse): rivaroxaban itself incubated
Description: The final concentration of the test compound in the assay is 5 micromolar. […] C. The 100 microlitres of aliquot at time point was removed and diluted with ice cold acetonitrile containing IS (200 µL) to stop the reactions. Samples are centrifuged at 10,000 RPM for 5 minutes to precipitate proteins. Supernatants are transferred to micro centrifuge tubes and stored at −20° C. for analysis of LC/MS/MS. The percent parent remaining of the test substance is calculated as ratio of peak area at each time point to peak area ratio at zero min, multiplied by 100.
API 4000, ESI Agilent 1100 column: Gemini Nx 100 mm×4.6 mm 5.μ; column temperature: 30° C.; eluent A: 0.1% formic acid in water, eluent B: acetonitrile; gradient: 0-2.5 min 95% A, 5% B; 2.5-2.6 min 5% A, 95% B; 2.6-4.2 min 95% A, 5% B; flow rate: 0.8 ml/min; ESI. Q1:464.098, Q3:144.255

[6] = In vitro liver microsomal stability assay, mouse; type: in vitro ADME; details: mouse microsomes, rivaroxaban itself
Description: as §1

thrombus formation [7] = test: Arterial thrombosis model (rat); type: in vivo, rats (strain: Wistar); details: for ED50: Rattus norvegicus, arterial thrombosis, read-out: ED-50 to inhibit the thrombus formation
Description: Male fasting rats (strain: Wistar) having a weight 280-320 g were anaesthetized using isoflurane/oxygen. The left carotid artery was exposed (about 2 cm). The formation of an arterial thrombus was induced by mechanical injury to the blood vessel in accordance with the method described by K. Meng et al., Naunyn-Schmiedeberg's Arch. Pharmacol. (1977), 301, 115-119. To this end, the exposed carotid artery was clamped from the blood flow, cooled to -20° C. in a metal trough for 2 minutes and, to standardize the size of the thrombi, simultaneously compressed using a weight of 200 g. […] The proximal clamp was removed, and the wound was closed and re-opened after 2 hours to remove the injured section of the vessel. The section of the vessel was opened longitudinally and the thrombus was removed from the injured section of the vessel. The moist weight of the thrombi was determined immediately. […] Animals were grouped by body weight stratification and randomization (Represented by G1-[…]). The grouping was done one day prior to the experiment initiation.

O=C(NC[C@H]1CN(c2ccc(N3CCOCC3=O)cc2)C(=O)O1)c1ccc(Cl)s1 [Rivaroxaban, 5-chloro-N-({(5S)-2-oxo-3-[4-(3-oxomorpholin-4-yl)phenyl]-1,3-oxazolidin-5-yl}methyl)thiophene-2-carboxamide, reference compound]
% Parent remaning (Human) ([1]; 0 min): 100%
% Parent remaning (Human) ([1]; 15 min): 0.01%
% Parent remaning (Human) ([1]; 30 min): 0.01%
Observation: metabolism ([2]; rivaroxaban itself): High
% Parent remaining (rat) ([2]; 0 min): 100%
% Parent remaining (rat) ([2]; 15 min): 0.01%
% Parent remaining (rat) ([2]; 30 min): 0.02%
ED50 (thrombus formation [3]; intravenous): 1.7 mg/kg
ED50 (thrombus formation [3]; per oral): 26.2 mg/kg
Mean thrombus weight (mg) (±SEM) (thrombus formation [3]; intravenous, Dose 0.5, vehicle 27.26 ± 1.23): 13.95 ± 1.49 mg
Mean thrombus weight (mg) (±SEM) (thrombus formation [3]; intravenous, Dose 1, vehicle 27.26 ± 1.23): 10.84 ± 1.16 mg
Mean thrombus weight (mg) (±SEM) (thrombus formation [3]; intravenous, Dose 2, vehicle 27.26 ± 1.23): 10.83 ± 1.11 mg
Mean thrombus weight (mg) (±SEM) (thrombus formation [3]; intravenous, Dose 3, vehicle 27.26 ± 1.23): 6.92 ± 0.57 mg
Mean thrombus weight (mg) (±SEM) (thrombus formation [3]; intravenous, Dose 4, vehicle 27.26 ± 1.23): 7.56 ± 0.59 mg
Mean thrombus weight (mg) (±SEM) (thrombus formation [3]; per oral, Dose 2.5, vehicle 26.95 ± 1.23): 19.2 ± 0.2 mg
Mean thrombus weight (mg) (±SEM) (thrombus formation [3]; per oral, Dose 5, vehicle 26.95 ± 1.23): 17.26 ± 0.75 mg
Mean thrombus weight (mg) (±SEM) (thrombus formation [3]; per oral, Dose 10, vehicle 26.95 ± 1.23): 15.41 ± 1.25 mg
Mean thrombus weight (mg) (±SEM) (thrombus formation [3]; per oral, Dose 15, vehicle 26.95 ± 1.23): 16.9 ± 0.49 mg
Mean thrombus weight (mg) (±SEM) (thrombus formation [3]; per oral, Dose 20, vehicle 26.95 ± 1.23): 9.7 ± 1.34 mg
ED50 (thrombus formation [4]; Rattus norvegicus, venous thrombosis, per oral, read-out: ED-50 to inhibit the thrombus formation): 12.3 mg/kg
Mean thrombus weight (mg) (±SEM) (thrombus formation [4]; Dose 2.5): 2.93 ± 0.50 mg
Mean thrombus weight (mg) (±SEM) (thrombus formation [4]; Dose 5.0): 2.06 ± 0.73 mg
Mean thrombus weight (mg) (±SEM) (thrombus formation [4]; Dose 10): 2.06 ± 0.53 mg
Mean thrombus weight (mg) (±SEM) (thrombus formation [4]; Dose 15): 1.43 ± 0.46 mg
Mean thrombus weight (mg) (±SEM) (thrombus formation [4]; Dose 20): 1.66 ± 0.74 mg
Conversion summary: unchanged, stable in plasma ([5]; rivaroxaban itself): unchanged,
% Parent remaining (Mouse) ([5]; 0 min): 100%
% Parent remaining (Mouse) ([5]; 30 min): 100%
% Parent remaining (Mouse) ([5]; 60 min): 100%
Observation: metabolism [6]: High
ED50 (thrombus formation [7]; intravenous): 2.5 mg/kg
ED50 (thrombus formation [7]; per oral): 24.2 mg/kg
Mean thrombus weight (mg) (±SEM) (thrombus formation [7]; intravenous 5 minutes before induction, Dose 0.5, vehicle 2.08 ± 0.47): 1.10 ± 0.32 mg
Mean thrombus weight (mg) (±SEM) (thrombus formation [7]; intravenous 5 minutes before induction, Dose 1, vehicle 2.08 ± 0.47): 0.62 ± 0.08 mg
Mean thrombus weight (mg) (±SEM) (thrombus formation [7]; intravenous 5 minutes before induction, Dose 2, vehicle 2.08 ± 0.47): 0.70 ± 0.11 mg
Mean thrombus weight (mg) (±SEM) (thrombus formation [7]; intravenous 5 minutes before induction, Dose 3, vehicle 2.08 ± 0.47): 0.41 ± 0.05 mg
Mean thrombus weight (mg) (±SEM) (thrombus formation [7]; intravenous 5 minutes before induction, Dose 4, vehicle 2.08 ± 0.47): 0.34 ± 0.08 mg
Mean thrombus weight (mg) (±SEM) (thrombus formation [7]; per oral 120 minutes before induction, Dose 2.5, vehicle 1.70 ± 0.39): 1.71 ± 0.45 mg
Mean thrombus weight (mg) (±SEM) (thrombus formation [7]; per oral 120 minutes before induction, Dose 5.0, vehicle 1.70 ± 0.39): 1.78 ± 0.66 mg
Mean thrombus weight (mg) (±SEM) (thrombus formation [7]; per oral 120 minutes before induction, Dose 10, vehicle 1.70 ± 0.39): 0.84 ± 0.23 mg
Mean thrombus weight (mg) (±SEM) (thrombus formation [7]; per oral 120 minutes before induction, Dose 15, vehicle 1.70 ± 0.39): 0.78 ± 0.14 mg
Mean thrombus weight (mg) (±SEM) (thrombus formation [7]; per oral 120 minutes before induction, Dose 20, vehicle 1.70 ± 0.39): 0.65 ± 0.10 mg
